Experimental data: article PMC5772648, “Targeted NUDT5 inhibitors block hormone signaling in breast cancer cells” (Nature Communications, 2018)

What was measured:
[1] = system: T47D^M cells; assay: progesterone-dependent gene expression by RT-qPCR; assay type: cell-based; details: 1.5 µM, 6 h R5020
Protocol: (§1) For hormone and inhibitor treatments, normal T47D^WT cells or cells containing a single copy of luciferase under the control of the mouse mammary tumor virus (MMTV) promoter (T47D^M) were used[23]. Prior to hormone induction, cells were grown in phenol red-free RPMI medium supplemented with 10% dextran-coated charcoal-treated FBS (DCC/FBS). After 16 h in serum-free conditions, cells were pre-incubated with DMSO (vehicle) or NUDT5 inhibitor for 2 h at the indicated dose before addition of R5020 (10 nM) or vehicle (ethanol, EtOH) for the allotted time.
Total RNA and cDNA were prepared using an RNeasy Plus kit (Qiagen) and Superscript II kit (Invitrogen), respectively, according to the manufacturers’ instructions. Quantification of mRNA abundance of specific gene products was performed by RT-qPCR (LightCycler FastStart DNA Master SYBR Green I), normalized to GAPDH and expressed as relative RNA abundance over time zero (no R5020 treatment). Primer sequences are available upon request.

[2] = biological target: T1, NUDT5 in intact HL-60 cells (Homo sapiens, UniProt Q9UKK9); assay: intact cell CETSA; assay type: cell-based; details: 20 µM, 83 °C
T1 construct: endogenous in cells; host or cells: HL-60
Protocol: (§2) For CETSA experiments with cells treated in culture, 1 × 10^6 HL-60 were treated with DMSO (0.1 % v/v final) or 20 µM compound for 3 h at 37 °C and 5% CO2 in a humidified incubator. T47D^WT cells were treated instead with 80 µM TH1659, 15 µM TH5423/5424 and 1.5 µM TH5427. The cells were harvested, washed twice with PBS and resuspended in TBS with protease inhibitors, as above. Heating was identical as before, except that immediately following heating, the cell suspensions were snap frozen in a dry ice/ethanol bath and freeze-thawed, as previously, to lyse cells. Centrifugation at 20 000 × g for 20 min at 4 °C removed cellular debris and protein aggregates, and lysates were prepared for western blotting.

[3] = SafetyScreen 44 and ExpresSDiversity kinase panels (Eurofins Cerep Panlabs); design: species or system human; details: 10 µM
Protocol: TH5427 selectivity was also studied with the SafetyScreen44™ Panel and ExpresSDiversity Kinase Panel from Eurofins Cerep Panlabs at 10 µM, according to the company’s procedures.

[4] = system: histone H1 displacement in T47D cells; assay: histone H1 displacement by chromatin immunoprecipitation after R5020; assay type: cell-based; details: 30 min R5020
Protocol: as §1
ChIP assays were performed using a histone H1-specific antibody, AE4 (Abcam)[54]. 1 × 10^7 T47D^M cells (plated and treated with hormone and/or inhibitor, as described above) were cross-linked for 10 min with 1% formaldehyde. Lysates were sonicated (Biorupter sonicator, Diagenode) resulting in DNA fragments with a size range of 200-300 bp. […] The resultant eluted DNA was quantified by Qubit 3.0 Fluorometer (Life Technologies) and qPCR (LightCycler FastStart DNA Master SYBR Green I, Roche). The fold enrichment of target sequences in the immunoprecipitated (IP) compared to input (I) fractions were calculated using the comparative Ct method (2^Ct(IP)−Ct(I)). […]

[5] = biological target: T2, NUDT5 in T47D cells (Homo sapiens, UniProt Q9UKK9); assay: intact cell CETSA in T47D cells; assay type: cell-based; details: 1.5 µM TH5427, 83 °C
T2 construct: endogenous in cells; host or cells: T47D (T47D^WT)
Protocol: as §2

[6] = biological target: T3, NUDT5 in HL-60 cells (Homo sapiens, UniProt Q9UKK9); assay: isothermal dose-response fingerprint CETSA (ITDRFCETSA); assay type: cell-based; details: 20 to 0.06 µM
T3 construct: endogenous in cells; host or cells: HL-60
Protocol: Treatments, heating and lysis procedures for ITDRFCETSA were performed identically to those for CETSA experiments, except NUDT5 inhibitors were added to cells at serial dilutions from 20 to 0.06 µM. Curves were fit by sigmoidal dose-response (variable slope) to derive EC50 values in GraphPad Prism 7.

SMILES	progestin-dependent gene expression, EGFR and MMTV-luc [1]	progestin-independent gene expression, CCNB1 and RBM24 [1]	NUDT5 stabilization in intact cells [2]	off-target interactions in panels [3]	histone H1 displacement after R5020 ([4]; 1.5 µM)	NUDT5 stabilization in T47D cells [5]	EC50 ([6]; read-out: ITDRFCETSA apparent EC50) [nM]	histone H1 displacement after R5020 ([4]; 15 µM)	ITDRFCETSA dose-dependent stabilization [6]
Cn1c(=O)c2c(nc(N3CCNCC3)n2Cc2nnc(-c3ccc(Cl)c(Cl)c3)o2)n(C)c1=O [TH5427]	significantly disrupted EGFR and MMTV-luc expression	did not affect the expression of CCNB1 or RBM24	stabilized NUDT5 to nearly the same levels as observed in the 37 °C DMSO control	only displayed a few significant interactions	inhibited histone H1 displacement	demonstrated the best ability to stabilize NUDT5 in T47D cells	2100	–	–
CCN1CCN(c2nc3c(c(=O)n(C)c(=O)n3C)n2Cc2nnc(-c3ccc(Cl)c(Cl)c3)o2)CC1 [TH5424]	–	–	stabilized NUDT5 to nearly the same levels as observed in the 37 °C DMSO control	–	–	–	–	moderate effects	could also dose-dependently stabilize NUDT5, however much higher concentrations were required
